Experimental data from US20220387303A1, “Vaginal Drug Delivery Device” (THE REGENTS OF THE UNIVERSITY OF CALIFORNIA, priority 2019, published 2022).
In brackets after ≈: the same amount, converted by molar mass.

Legend:
[1] = In vitro cumulative drug release from devices in PBS (pH 7.4) at 37° C. under gentle shaking; format: physicochemical
[2] = tested on: Candida albicans (ATCC 18804); assay: Liquid assay, inhibition of yeast growth in Sabouraud dextrose broth; format: cell-based; settings: for Optical Density (OD600): 12 h; for Cell Density: converted from OD600
Description: Liquid assay was also used to further characterize the […] properties. Candida albicans (ATCC 18804) was cultured in Sabouraud dextrose broth with a starting concentration of 0.08 OD600 value. After 12 h, optical density was measured using spectrometer at 600 nm wavelength. Then, conversion to cell density is using the approximation 0.5 equals 1.5×10^8 CFU/ml.

SMILES	sustained release duration ([1]; clotrimazole from PLGA device)	IC50 ([2]; Candida albicans, ATCC18804, after 12 h, starting 0.08 OD600, read-out: IC50 (half maximal inhibitory concentration))	Optical Density (OD600) ([2]; Clotrimazole Conc. 0.37 μg/ml)	Cell Density ([2]; Clotrimazole Conc. 0.37 μg/ml)	Optical Density (OD600) ([2]; Clotrimazole Conc. 1.1 μg/ml)	Cell Density ([2]; Clotrimazole Conc. 1.1 μg/ml)	Optical Density (OD600) ([2]; Clotrimazole Conc. 3.3 μg/ml)	Cell Density ([2]; Clotrimazole Conc. 3.3 μg/ml)	Optical Density (OD600) ([2]; Clotrimazole Conc. 10 μg/ml)	Cell Density ([2]; Clotrimazole Conc. 10 μg/ml)	prolonged and sustained release of hormone drugs, duration ([1]; released from device)
Clc1ccccc1C(c1ccccc1)(c1ccccc1)n1ccnc1 [Clotrimazole]	up to 10 days	3.3 µg/mL (≈ 9.57 µM)	0.9	2.7e+08 mL⁻¹	0.8	2.4e+08 mL⁻¹	0.7	2.1e+08 mL⁻¹	0.5	1.5e+08 mL⁻¹	–
CC(=O)[C@H]1CC[C@H]2[C@@H]3CCC4=CC(=O)CC[C@]4(C)[C@H]3CC[C@]12C [progesterone]	–	–	–	–	–	–	–	–	–	–	more than two months
